Test results published in PMC9679999, “A Useful Guide to Lectin Binding: Machine-Learning Directed Annotation of 57 Unique Lectin Specificities” (ACS Chemical Biology, 2022).

Tests used:
Type in all cases: binding
[1] = molecular target: Marasmius oreades agglutinin (MOA) (Marasmius oreades, UniProt Q8X123); assay: CFG glycan microarray v5, biotinylated lectin, Cy5-streptavidin
[2] = molecular target: T1, Cholera Toxin B Subunit (CTB) (Vibrio cholerae, UniProt P01556)
T1 construct: gene ctxB

[3] = molecular target: T2, Psophocarpus tetragonolobus lectin-I (PTL-I/PTA-I) (Psophocarpus tetragonolobus, UniProt O24313); assay: CFG glycan microarray v5, biotinylated lectin, Cy5-streptavidin
T2 construct: gene WBAI
T2 sequence (O24313 1-242): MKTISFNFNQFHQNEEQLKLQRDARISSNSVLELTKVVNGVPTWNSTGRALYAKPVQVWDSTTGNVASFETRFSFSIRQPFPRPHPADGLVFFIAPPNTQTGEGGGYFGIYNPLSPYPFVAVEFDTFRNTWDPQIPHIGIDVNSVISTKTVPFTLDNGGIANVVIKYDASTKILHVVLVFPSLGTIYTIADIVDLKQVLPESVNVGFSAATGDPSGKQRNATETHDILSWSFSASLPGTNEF

[4] = molecular target: T3, Hippeastrum hybrid Lectin (HHA, HHL) (Hippeastrum hybrid cultivar, UniProt Z9FHC8O5N0); assay: as above
T3 construct: commercial lectin (EY and Vector), biotinylated
T3 sequence (Z9FHC8O5N0 1-108): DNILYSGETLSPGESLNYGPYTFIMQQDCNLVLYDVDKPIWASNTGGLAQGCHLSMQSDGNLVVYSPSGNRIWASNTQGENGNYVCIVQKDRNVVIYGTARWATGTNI

Chain of Marasmius oreades agglutinin (MOA) (Q8X123 entry or part of it): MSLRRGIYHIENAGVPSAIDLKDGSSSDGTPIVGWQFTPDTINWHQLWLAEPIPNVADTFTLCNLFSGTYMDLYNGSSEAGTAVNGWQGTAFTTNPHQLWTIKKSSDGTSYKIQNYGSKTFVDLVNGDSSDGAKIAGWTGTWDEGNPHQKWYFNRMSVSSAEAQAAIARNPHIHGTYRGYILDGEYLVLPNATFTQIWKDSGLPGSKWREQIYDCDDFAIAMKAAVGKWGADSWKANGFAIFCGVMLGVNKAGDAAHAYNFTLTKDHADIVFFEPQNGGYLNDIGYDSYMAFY
T1 sequence (P01556 22-124 limits assumed): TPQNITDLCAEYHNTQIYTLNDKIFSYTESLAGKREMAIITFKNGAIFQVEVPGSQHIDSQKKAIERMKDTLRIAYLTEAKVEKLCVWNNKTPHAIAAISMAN

## C[C@@H]1O[C@@H](O[C@H]2C(O)O[C@H](CO)[C@H](O)[C@@H]2O[C@H]2O[C@H](CO)[C@H](O)[C@H](O)[C@H]2O)[C@@H](O)[C@H](O)[C@@H]1O (stereo partly shown) [B trisaccharide]
[1]
  CFG glycan microarray v5, biotinylated lectin, Cy5-streptavidin: This motif lies within the B trisaccharide, which is preferentially bound by this lectin

## CC(=O)N[C@H]1[C@H](O[C@@H]2[C@H](O[C@]3(C(=O)O)C[C@H](O)[C@@H](NC(C)=O)[C@H]([C@H](O)[C@H](O)CO)O3)[C@@H](O)[C@H](O[C@H]3[C@H](O)[C@@H](O)C(O)O[C@@H]3CO)O[C@@H]2CO)O[C@H](CO)[C@H](O)[C@@H]1O[C@@H]1O[C@H](CO)[C@H](O)[C@H](O)[C@H]1O (stereo partly shown) [GM1]
[2]
  CFG glycan microarray v5, biotinylated lectin, Cy5-streptavidin: Our analysis found only two glycan binders, GM1 and fucosylated GM1

## CC(=O)N[C@H]1[C@@H](O[C@H]2[C@@H](O)[C@@H](CO)OC(O)[C@@H]2O[C@@H]2O[C@@H](C)[C@@H](O)[C@@H](O)[C@@H]2O)O[C@H](CO)[C@H](O)[C@@H]1O (stereo partly shown) [blood group A trisaccharide]
[3]
  CFG glycan microarray v5, biotinylated lectin, Cy5-streptavidin: we found blood group A trisaccharides

## OC[C@H]1O[C@H](OC[C@H]2OC(O)[C@@H](O)[C@@H](O[C@H]3O[C@H](CO)[C@@H](O)[C@H](O)[C@@H]3O)[C@@H]2O)[C@@H](O)[C@@H](O)[C@@H]1O (stereo partly shown) [mannose core trisaccharide]
[4]
  CFG glycan microarray v5, biotinylated lectin, Cy5-streptavidin: This lectin shows the highest affinity for the mannose core trisaccharide
